Experiments:
[1] = test system: PPARγ2 and aP2 gene expression in 3T3 L1 cells; test: RT-PCR of adipocyte-specific genes; type: cell-based; settings: versus vehicle control
Procedure: The adipocyte differentiation assay was performed as described by Mukherjee et. al. (Mol Endocrinol 14: 1425-33, 2000). The 3T3 L1 cells (American Type Culture Collection) were cultured in DMEM media supplemented with 10% calf serum. Two days after reaching confluence, cells were treated with AJA, GW347845, or vehicle (0.1% DMSO) in the presence of 10 μg/ml insulin every other day. After 10 days of treatment with AJA or 7 days with GW347845 at confluence, cells were fixed and stained with Oil Red O (Sigma). For RT-PCR, total cellular RNAs were isolated by TRIzol (Gibco). Reverse transcriptase polymerase chain reaction (RT-PCR) was performed using the superscript first-strand synthesis kit (Invitrogen). After first-strand cDNA was synthesized by use of oligo (dT), cDNA was amplified by PCR. The forward primers and reverse primers used in the amplifications were 5′-GCTGTTATGGGTGAAACTCTGGGAG-3′(SEQ ID NO: 1), and 5′-CTTCATGAGGCCTGTTGTAGAGC-3′ (SEQ ID NO:2), for PPARγ2, 5′-GAGCAAATGGAGTTCCCAGATG-3′ (SEQ ID NO: 3), and 5′-GCAAACAATGGGAATAGTTCACAGTAG-3′ (SEQ ID NO: 4), for aP2, and 5′-GACCACAGTCCATGCCATCAC-3′(SEQ ID NO: 5), and 5′-CATACCAGGAAATGAGCTGAC-3′ (SEQ ID NO: 6), for GAPDH. PCR amplifications were performed in 50 μL volume with Taq DNA polymerase for 30 cycles.
To confirm that AJA and GW347845 induce 3T3 L1 cell differentiation into adipocytes, the expression levels of the adipocyte-specific genes PPARγ2 and aP2 were measured by RT-PCR. Total RNA was isolated after AJA or GW347845 treatment, and compared with vehicle control. Reverse transcription was conducted and the relative amounts of PPARγ2 and aP2 transcripts were measured by PCR reactions using primer sets specific to each gene. PCR products were analyzed on 1% agarose gel and stained with Ethidium Bromide. […] As a control for the induction specificity and the PCR amplification reaction, the expression levels of GADPH were measured in all samples, and found not affected by any treatment.

3T3 L1 fibroblasts = test: Adipocyte differentiation assay, Oil Red O staining; type: cell-based; settings: 1 μM GW347845, 7 days, 10 μg/ml insulin
Procedure: The adipocyte differentiation assay was performed as described by Mukherjee et. al. (Mol Endocrinol 14: 1425-33, 2000). The 3T3 L1 cells (American Type Culture Collection) were cultured in DMEM media supplemented with 10% calf serum. Two days after reaching confluence, cells were treated with AJA, GW347845, or vehicle (0.1% DMSO) in the presence of 10 μg/ml insulin every other day. After 10 days of treatment with AJA or 7 days with GW347845 at confluence, cells were fixed and stained with Oil Red O (Sigma). For RT-PCR, total cellular RNAs were isolated by TRIzol (Gibco). Reverse transcriptase polymerase chain reaction (RT-PCR) was performed using the superscript first-strand synthesis kit (Invitrogen). After first-strand cDNA was synthesized by use of oligo (dT), cDNA was amplified by PCR. […]
3T3 L1 fibroblasts cells were cultured in DMEM supplemented with 10% calf serum. […] The cells were treated for 10 days with AJA, or 7 days with GW347845, and lipid accumulation in cells was assessed by Oil Red O staining.

human IL-8 promoter [2] = test: IL-8 promoter luciferase assay, HeLa cells with PPARγ ΔAF2 mutant; type: cell-based; settings: cells transfected with PPARγ ΔAF2 mutant
Procedure: For PPARγ activation assay, HEK293 cells were plated in 12-well cell culture plates and maintained in Dulbecco's modified Eagle's medium (DMEM) supplemented with 10% fetal bovine serum (FBS) at 37° C. under 5% CO2. Cells were changed to phenol red-free DMEM supplemented with 10% charcoal-stripped fetal bovine serum 3 hours before transfection by a standard calcium-phosphate precipitation method. Twelve hours after transfection, the cells were washed with phosphate-buffered saline (PBS) and fed again with fresh medium containing the indicated concentrations of compounds. After 36 hours, cells were harvested for β-galactosidase and luciferase activities as described previously (Li et al., Proc Natl Acad Sci USA 94:8479-84, 1997). The average normalized luciferase activity was determined via triplicate experiments. For IL-8 promoter assay, HeLa cells were maintained and transfected in the same way as described above. After transfection, cells were recovered for 4 hours before treatment with AJA, GW347845, or solvent. […]
The IL-8 luciferase reporter controlled by the human IL-8 promoter (-97/-69) was cotransfected with mPPARγ or mPPARγ ΔAF2 mutant into HeLa cells. […] The involvement of PPARγ in regulating IL-8 promoter activity was determined by comparing the IL-8 promoter activity in the presence of wild type PPARγ or its ΔAF2 mutant. […]

human IL-8 promoter [3] = test: IL-8 promoter luciferase assay, HeLa cells with wild type PPARγ; type: cell-based; settings: GW347845 control
Procedure: For PPARγ activation assay, HEK293 cells were plated in 12-well cell culture plates and maintained in Dulbecco's modified Eagle's medium (DMEM) supplemented with 10% fetal bovine serum (FBS) at 37° C. under 5% CO2. Cells were changed to phenol red-free DMEM supplemented with 10% charcoal-stripped fetal bovine serum 3 hours before transfection by a standard calcium-phosphate precipitation method. Twelve hours after transfection, the cells were washed with phosphate-buffered saline (PBS) and fed again with fresh medium containing the indicated concentrations of compounds. After 36 hours, cells were harvested for β-galactosidase and luciferase activities as described previously (Li et al., Proc Natl Acad Sci USA 94:8479-84, 1997). The average normalized luciferase activity was determined via triplicate experiments. For IL-8 promoter assay, HeLa cells were maintained and transfected in the same way as described above. After transfection, cells were recovered for 4 hours before treatment with AJA, GW347845, or solvent. After 3-4 hours, cells were treated with or without 25 nM of phorbol myristate acetate (PMA) for 24 hours.
The IL-8 luciferase reporter controlled by the human IL-8 promoter (-97/-69) was cotransfected with mPPARγ or mPPARγ ΔAF2 mutant into HeLa cells. After transfection, cells were treated with AJA, GW347845 or solvent after PMA treatment for 24 hours. This was performed by determining the effect of AJA on IL-8 promoter activity and the role of PPARγ in this process. IL-8 is a biomarker for inflammation, and reduction of IL-8 levels correlates with a decrease in inflammation. The involvement of PPARγ in regulating IL-8 promoter activity was determined by comparing the IL-8 promoter activity in the presence of wild type PPARγ or its ΔAF2 mutant. In the experiment illustrated in FIG. 6A, PMA stimulated IL-8 promoter activity 3 fold, which was set as 100% promoter activity.

PPARγ = target: T1, PPARγ (Homo sapiens, UniProt P37231); test: Activation of PPARγ by natural cannabinoids (no method given)
T1 sequence (P37231 1-505): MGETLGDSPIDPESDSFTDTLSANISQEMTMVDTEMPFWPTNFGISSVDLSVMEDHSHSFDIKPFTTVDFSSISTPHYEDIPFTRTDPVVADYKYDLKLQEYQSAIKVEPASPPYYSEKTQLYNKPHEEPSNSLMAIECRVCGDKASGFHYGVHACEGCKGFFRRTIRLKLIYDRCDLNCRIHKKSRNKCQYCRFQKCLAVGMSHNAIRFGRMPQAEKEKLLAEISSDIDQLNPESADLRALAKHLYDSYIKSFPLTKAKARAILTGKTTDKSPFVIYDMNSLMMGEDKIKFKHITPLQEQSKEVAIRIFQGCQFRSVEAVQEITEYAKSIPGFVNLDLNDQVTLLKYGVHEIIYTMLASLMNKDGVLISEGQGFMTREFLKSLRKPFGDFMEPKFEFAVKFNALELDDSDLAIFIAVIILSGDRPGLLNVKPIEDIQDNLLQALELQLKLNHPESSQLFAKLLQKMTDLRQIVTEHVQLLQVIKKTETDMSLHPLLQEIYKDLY

| SMILES | PPARγ2 gene expression [1] | aP2 gene expression [1] | lipid accumulation, Oil Red O staining (3T3 L1 fibroblasts) | effect on IL-8 promoter activity (human IL-8 promoter [2]) | reduction of IL-8 promoter activity (human IL-8 promoter [3]) | activation of PPARγ (PPARγ) |
| --- | --- | --- | --- | --- | --- | --- |
| COC(=O)c1ccccc1N[C@@H](Cc1ccc(OCCc2nc(-c3ccccc3)oc2C)cc1)C(=O)O [GW347845, reference compound] | enhanced PPARγ2 and aP2 gene expression significantly | enhanced PPARγ2 and aP2 gene expression significantly | dramatic increase in lipid droplet staining | not with the ΔAF2 mutant | dramatically reduced IL-8 promoter activity |  |
| CCCCCc1cc(O)c2c(c1)OC(C)(C)[C@@H]1CCC(C)=C[C@@H]21 [THC, Tetrahydrocannabinol] |  |  |  |  |  | also activate PPARγ |

— patent US20040186166A1, “Cannabinoid analogs as peroxisome proliferator activated nuclear receptor gamma activators” (priority 2002, published 2004)
